Laboratory results reported in patent US20070224267A1, “Ambroxol for the treatment of painful conditions in the mouth and pharyngeal cavity” (priority 2002, published 2007).
Where a name gives a salt, the structure may show the parent alone.

Columns and labels:
[1] = test system: patients with acute sore throat; test: Clinical trial of suckable tablets containing 20 or 30 mg ambroxol hydrochloride vs placebo in acute sore throat (Example 2); type: in vivo; conditions: for average SPIDnorm (±SD) after the first suckable tablet: time-weighted average pain reduction in first 3 hours, standardised to initial pain, placebo 0.38±0.28
Procedure: A multi-centred, prospective, placebo-controlled, randomised double-blind trial was carried out over three days' treatment with up to 6 suckable tablets containing ambroxol hydrochloride per day. Patients: 331 ambulant patients with acute uncomplicated sore throats of at least moderate severity but with no bacterial pharyngitis were investigated. Treatments: Double-blind treatment with up to 6 suckable tablets per day containing either 20 mg or 30 mg of ambroxol hydrochloride or constituting a placebo (suckable tablet without the active substance, but again with a marked flavour of peppermint similar to the test substance). End points: The average pain reduction, weighted for time, during the first 3 hours after administration of the first suckable tablet, standardised to the degree of initial pain (SPIDnorm); moreover, the assessment of effectiveness and tolerance by the patient at the end of each day of treatment.

[2] = test system: patients with acute sore throat; test: Clinical trial of suckable tablets containing 20 mg ambroxol hydrochloride vs placebo in acute sore throat (Example 1); type: in vivo
Procedure: A multi-centred, prospective, placebo-controlled, randomised double-blind trial was carried out over two days' treatment with up to 6 suckable tablets containing ambroxol hydrochloride per day. Patients: 218 patients (97 men, 121 women) with an average age of 39.4±15 years (range from 17-81 years) were recruited; of these 215 patients were treated: 107 with 20 mg of ambroxol and 108 with placebo. 26 patients stopped the treatment early (13 in each treatment group). The intent-to-treat (ITT) population consisted of 208 patients (105 treated with ambroxol and 103 given the placebo); 196 patients formed the per-protocol (PP) population (97 with test substance and 99 with placebo). For the drug safety analysis, all the patients treated were studied. Treatments: Double-blind treatment with up to 6 suckable tablets per day, which either contained 20 mg of ambroxol or constituted a placebo (suckable tablet without the active substance, but with a marked flavour of peppermint similar to the test substance). End points: The average pain reduction, weighted for time, during the first 3 hours after administration of the first suckable tablet, standardised to the degree of initial pain (SPIDnorm); moreover, the assessment of effectiveness and tolerance by the patient at the end of each day of treatment.

[3] = up to 6 suckable tablets of 20 mg per day, two days, vs placebo

With Nc1c(Br)cc(Br)cc1CN[C@H]1CC[C@H](O)CC1 [ambroxol hydrochloride, trans-4-[(2-amino-3,5-dibromobenzyl)amino]cyclohexano hydrochloride] the “average SPIDnorm (±SD) after the first suckable tablet” value (shortened to “average SPIDnorm (±SD)”) ([1]; 20 mg suckable tablet) was 0.53±0.28, the “average SPIDnorm (±SD)” value ([1]; 30 mg suckable tablet) was 0.50±0.30 and the “assessment of effectiveness by the patient at the end of each day of treatment” value ([1]; up to 6 suckable tablets of 20 or 30 mg per day, three days, vs placebo) was “statistically significantly larger number of patients reported a higher degree of effectiveness”. For the same compound, the tolerance ([1]; up to 6 suckable tablets per day, three days, all dosages (20 and 30 mg), vs placebo) was “tolerated just as well as the placebo”, the “average SPIDnorm (±SD)” value ([2]; 20 mg suckable tablet, time-weighted average pain reduction in first 3 hours, standardised to initial pain, placebo 0.28±0.25) was 0.39±0.27 and the “assessment of effectiveness by the patient at the end of each day of treatment” value [2, 3] was “statistically significantly larger number of patients reported a higher degree of effectiveness”. The tolerance [2, 3] was “tolerated just as well as the placebo”.
